According to patent publication US20190218304A1, “POTENTIATING THE EFFECT OF ATP RELEASE” (INNATE PHARMA, priority 2017, published 2019):

System: MCA205 mouse tumor cells (sarcoma)
Assay: In vivo combination treatment, MCA205 tumors in human CD39 KI mice
[1] = first experimental series: oxaliplatin at day 5, murine I-394 twice a week from day 4
[2] = second experimental series, repeated oxaliplatin

Experimental: 1×10^6 MCA205 mouse tumor cells (sarcoma) were subcutaneously engrafted in the right flank of mice genetically modified to express human CD39 (CD39KI mice). […] Tumors were measured twice a week with a caliper (L: length and w: width) and tumor volume was calculated with the formula (L×w2)/2. Mice were sacrificed when tumor volume was above 1800 mm^3 or when tumors were highly necrosed. The human CD39 KI mice were engrafted with MCA205 tumor cells at day 0.
In a first experimental series, mice were treated at day 5 post tumor cell engraftment with either control (1 group) PBS, or oxaliplatin chemotherapy (2 groups). In parallel, one group of mice treated with oxaliplatin was injected twice a week with anti-CD39 antibody, with the anti-CD39 antibody treatment starting just one day before oxaliplatin treatment (at day 4).

O=C1[O][Pt]2([NH][C@@H]3CCCC[C@H]3[NH]2)[O]C1=O [oxaliplatin]
Complete Response (CR), number of mice [1]: no CR | Survival median [1]: 25 days | tumor free mice (second experimental series, 40 days post tumor engraftment): 2/12 | CR (complete responses), number of mice [2]: 2 | partial responses (PR), number of mice [2]: 3 | effect on tumor growth / tumor volume and mice survival (second experimental series: oxaliplatin injected twice, one week apart, one day after I-394): some regression of tumor volume, and increase in mice survival
